According to publication PMC11839854, “Exploration of (R)-[^11C]YH168 as a PET tracer for imaging monoacylglycerol lipase in the brain: from mice to non-human primates” (European Journal of Nuclear Medicine and Molecular Imaging, 2024):

How the values were obtained:
Assay type in all cases: biochemical
[1] = biological target: T1, monoacylglycerol lipase (MAGL) (Macaca fascicularis, UniProt A0A2K5V664); test: enzymatic inhibition assay with cynomolgus monkey MAGL protein
T1 sequence (A0A2K5V664 1-352): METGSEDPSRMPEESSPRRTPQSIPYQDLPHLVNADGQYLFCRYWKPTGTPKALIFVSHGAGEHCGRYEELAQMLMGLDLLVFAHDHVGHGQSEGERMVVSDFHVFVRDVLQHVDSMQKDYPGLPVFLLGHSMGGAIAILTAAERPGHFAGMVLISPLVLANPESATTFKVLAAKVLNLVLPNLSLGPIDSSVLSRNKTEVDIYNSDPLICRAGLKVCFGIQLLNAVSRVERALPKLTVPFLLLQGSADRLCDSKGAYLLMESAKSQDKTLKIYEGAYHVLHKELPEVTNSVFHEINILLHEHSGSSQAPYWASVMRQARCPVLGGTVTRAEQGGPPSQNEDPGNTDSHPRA

[2] = biological target: T2, monoacylglycerol lipase (MAGL) (Mus musculus, UniProt O35678); test: enzymatic inhibition assay with mouse MAGL protein; supported by autoradiography and PET in wild-type vs MAGL knockout mice
T2 construct: gene Mgll
T2 sequence (O35678 1-303): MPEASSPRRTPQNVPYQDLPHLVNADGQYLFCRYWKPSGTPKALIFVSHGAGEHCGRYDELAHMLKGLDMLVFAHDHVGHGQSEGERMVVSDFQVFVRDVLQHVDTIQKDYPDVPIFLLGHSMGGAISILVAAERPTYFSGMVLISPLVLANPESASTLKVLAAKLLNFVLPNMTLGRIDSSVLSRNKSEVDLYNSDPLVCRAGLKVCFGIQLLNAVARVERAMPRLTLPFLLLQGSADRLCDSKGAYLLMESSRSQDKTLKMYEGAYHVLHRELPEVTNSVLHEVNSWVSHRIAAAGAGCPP

[3] = biological target: T3, monoacylglycerol lipase (MAGL) (Homo sapiens, UniProt Q99685); test: enzymatic inhibition assay with human MAGL protein
T3 construct: gene MGLL
T3 sequence (Q99685 1-303): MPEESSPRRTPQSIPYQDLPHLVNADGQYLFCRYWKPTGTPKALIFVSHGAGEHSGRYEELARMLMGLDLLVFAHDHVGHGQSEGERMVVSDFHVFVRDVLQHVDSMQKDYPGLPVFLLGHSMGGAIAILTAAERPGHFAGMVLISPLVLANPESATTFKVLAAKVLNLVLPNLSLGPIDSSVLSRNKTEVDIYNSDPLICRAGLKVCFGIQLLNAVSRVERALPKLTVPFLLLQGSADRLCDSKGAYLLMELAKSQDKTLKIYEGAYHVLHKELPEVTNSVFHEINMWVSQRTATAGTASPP

IC50 [1]: 2.7 nM
IC50 [2]: 3.8 nM
IC50 [3]: 4 nM
Compound: Cc1cccc(-c2ccc(N3C[C@H](N4CCN(C(=O)c5ccco5)CC4)CC3=O)cc2)c1 [(R)-YH168]
